The text below walks through data of US10494341B2, “Compound containing indoleacetic acid core structure and use thereof” (Beijing An Jian Xi Bio-Medical Technology Co., Ltd., priority 2015, dated 2019).

Series [1] concerns SW480 cells. In words: Measurement of cellular uptake of compounds (HPLC of intermediate I). Format: in vitro ADME. As to conditions: 10 μM.
Series [2] deals with gastric mucosa. The series is described as follows: Ulcer induction in rats after gavage (lesions of the gastric mucosa). Format: in vivo.
Series [3] deals with colon cancer cells (SW480). As to conditions: SW480 tumors in nude mice. The method, then: The experiment was carried out using compound a in this example. Under sterile conditions, a suspension of colon cancer cells (SW480) in logarithmic growth phase (cell concentration was adjusted to 1×10^7/mL with physiological saline) was inoculated subcutaneously to 5 to 6 weeks old balb/c female nude mice on the right rear back, and each nude mice was inoculated at an amount of 0.3 ml, i.e. the number of cells contained was 3×10^6 per each mouse. 10 days later, subcutaneous transplanted tumor of 100-250 mm^3 appeared. The nude mice with tumor were randomly divided into several groups, each containing 6 mice: (1) control group; (2) doxorubicin group; (3) doxorubicin+amifostine; (4) doxorubicin+Celecoxib+intermediate II; (5) doxorubicin+intermediate I+intermediate II; (6) doxorubicin+low-dose compound a (6 mg/kg/day); (7) doxorubicin+high-dose compound a (15 mg/kg/day). Firstly, the following compounds were administered to each group of nude mice with tumor according to the following doses: intermediate I and intermediate II (3 mg/kg/day respectively), amifostine (400 mg/kg/day), Celecoxib (6 mg/kg/day). Except that amifostine was subcutaneously injected (30 minutes before irradiation), the other protective agents were administered by gavage. The above drugs were administered every day for 5 weeks continuously. 12 hours after the administration, doxorubicin (2.5 mg/kg) was injected intraperitoneally, and it was administered once every 2 days for 5 weeks. During the dosing period, the body weight of the nude mice was measured every two days with a precision electronic balance. The growth of the tumor and whether or not red and swelling and rupture occur were observed every day after inoculation. After tumor formation, the surface morphology and activity of the transplanted tumor were examined, and the longest diameter (a) and the shortest diameter (b) of the tumor nodules were measured every 3 days with a vernier caliper. […] 21 days after administration of doxorubicin, the tail vein blood of mice was collected to perform leukocyte count and blood biochemical index analysis. The tumor tissue and normal peripheral tissues were taken on the last day of treatment, and the content of the intermediate I therein was measured by HPLC (FIG. 9a). At the same time, paraffin sections were made, the occurrence of apoptosis was detected by terminal labeling (FIG. 9b), and the relative survival percentages of normal tissue and tumor tissue were calculated (the results are summarized in FIG. 9b).

Take `COc1ccc2c(c1)c(CC(=O)O)c(C)n2C(=O)c1ccc(Cl)cc1` [intermediate I, reference compound]: in series [1], the “uptake by cells” value is reported as “difficult to be efficiently taken up by the cells”. The prevalence of ulcer in series [2] (gavage three times, 10 μM) is 0/6; in series [2] (gavage three times, 30 μM), 2/6; in series [2] (gavage three times, 90 μM), 6/6. The same compound gave a Ulcer index in series [2] (gavage three times, Dose 90 μM/kg, 12 hours after last gavage) of 72.8 ± 6.82. In addition, the “ulcer at high concentration” value in series [2] (gavage, high concentration (90 μM)) was “very serious ulcer”. Besides, the “effect on tumor / on sensitivity of tumor to doxorubicin” value in series [3] (doxorubicin 2.5 mg/kg i.p. every 2 days for 5 weeks, agents daily) was “can also enhance the sensitivity of the tumor to Doxorubicin”. Further, the “death of animals during treatment” value in series [3] (doxorubicin 2.5 mg/kg i.p., 6 mice per group) is recorded as “die of gastrointestinal bleeding”.
